The record followed here is US9649378B2, “Cancer methods” (priority 2010, dated 2017).

The subject of assay [1] is phospho-ERK. Kind of assay: lapatinib-induced pERK attenuation after OPCML siRNA knockdown in OSE-C2 cells.
Description: (§4) (B) The effect of OPCML knockdown on the efficiency of lapatinib-induced pERK attenuation was analysed; densitometry of pERK signal (mean values of 3 independent experiments).
Endogenous OPCML was knocked down in OSE-C2 cells by transient transfection of a specific pool of 3 siRNAs (Stealth knockdown-Invitrogen) using lipofectamine RNAiMAX reagent.
We then investigated whether siRNA knockdown of physiological OPCML expression in normal OSE-C2 cells could affect sensitivity to lapatinib.
Assay [2] relates to phospho-ERK. Put plainly: EGF induced phospho-ERK activation in OPCML transfected (BKS2.1) and control (SKOBS-V1.2) cells.
Description: as §4
OPCML transfected and control cells were pre-incubated with lapatinib, trastuzumab, cituximab, erlotinib and gefitinib.
Assay [3] relates to HER2 3+ recurrent disease (ovarian and breast cancer). Kind of assay: response to lapatinib in patients by RECIST criteria versus OPCML IHC. The class given is in vivo, human. Details: key: SD = stable disease; PR = partial response; PD = progressive disease. The settings on record: individual cases 1-8, HER2 3+. How it is done:
We next tested whether OPCML could be used to predict response to lapatinib in ovarian and breast cancer. Histology was obtained by new biopsy of recurrent disease and TTP (time in months to progression from start of therapy until progression) assessed. Docetaxel and anthracyclines were administered for a maximum of 6 cycles and capecitabine was administered until disease progression or unacceptable toxicity. HER2 immunohistochemistry (IHC) was performed using the Dako Herceptest kit: 3+ in all cases.

Another assay deals with FGFR1. Kind of assay: GST-OPCML pull-down assay. The settings on record: lysate of FGFR1 transfected cells or FGFR1 ECD protein. The class given is binding. The protocol: (§1) FIG. 2: OPCML interacts with the ECD of HER2 and FGFR1 but not EGFR. (A) (i): Co-IP was performed using protein extracts from SKOBS-V1.2, SKOBS-3.5 and BKS2.1 (SKOBS-3.5 and BKS2.1 express 3 and 20-fold more OPCML protein than normal physiological levels seen in OSE-C2). The goat polyclonal anti-OPCML (R & D Systems) was used in initial IP and products were detected on Western blots employing respective Abs for EGFR and HER2. The reciprocal IP with a monoclonal to ECD of HER2 (Calbiochem) is shown with successful immunoblotting for OPCML in the BKS2.1 stable line (expressing 20-fold more OPCML); (ii) Co-IP using the OPCML Ab in SKOBS-V1.2 and BKS2.1 lines were immunoblotted with anti-FGFR1αECD Ab. (B) A structural representation of GST-OPCML 1+2 and GST-OPCML 1+2+3 constructs with subsequent Western blot analysis of the fusion proteins. […] FGFR1 was also shown to bind GST-OPCML 1+2+3 and GST-OPCML 1+2 from the same pull-down with lysate from SK-OV-3 cells transiently transfected with FGFR1 cDNA.
(§2) FIG. 17: OPCML directly interacts with EphA2, FGFR1 and HER2, but not EGFR. (A) Immuno-precipitation (IP) for OPCML showing positive immunoblots for EphA2, FGFR1 and HER2. […] (B) A schematic representation of GST-OPCML domain 1-3 construct. (C). […] The presence of OPCML fusion proteins in these assays was verified by immunoblotting (IB, bottom panel).
(§3) Pull-down assays were performed using recombinant GST-OPCML fusion proteins bound to magnetic glutathione beads (Promega). Cell lysates prepared as for immunoprecipitation, proteins produced using TNT in vitro Rabbit reticulocyte lysate expression system (Promega) or expressed in bacteria were used analysed for interactions.

Assay [4] has as its system OPCML. Put plainly: induction of OPCML expression by growth factors in serum starved SK-OV-3 cells (qRT-PCR, Western). The settings on record: 50 ng/ml EGF. The format is cell-based. (In general: Real-time PCR tracks product formation cycle by cycle.)
Description: Quantitative reverse-transcription PCR (qRT-PCR) analysis of gene expression was carried out on an Applied Biosystems 7900HT thermal cycler using SYBR green I technology. Premixed qPCR reagent, Platinum® Quantitative PCR SuperMix-UDG with ROX (Invitrogen, UK), was used for amplification. The expression of specific genes was normalized to the expression of the endogenous control gene HPRT1.
The test system of assay [5] is OPCML. Put plainly: induction of OPCML expression by growth factors in a panel of ovarian cancer cell lines. The format is cell-based. The settings on record: data not shown. An excerpt:
OPCML is a non-transmembrane, external lipid leaflet GPI-anchored protein, and is frequently lost from cells by somatic inactivation of the gene.

In another assay the test system is HER2. Kind of assay: GST-OPCML pull-down assay. The format is binding. As to conditions: SK-OV-3 lysate or in vitro translated HER2ECD. The protocol:
as §1, §2, §3

A further assay deals with T1, EGFR (Homo sapiens, UniProt P00533).
T1 construct: pull-down experiments with either SK-OV-3 cell lysates (expressing HER2 and EGFR); endogenous in cells; host or cells: SK-OV-3
Kind of assay: GST-OPCML pull-down assay. As to conditions: SK-OV-3 cell lysate. The class given is binding. The protocol: as §1, §2, §3

Where [6] appears, read: OPCML transfected versus control cells, EGF induced phospho-ERK.

Where “and” joins values, the source holds several entries; their conditions need not be identical. Identical values can stand only once. Like-named read-outs stand apart in the source and are kept apart here. Some results are limits rather than exact numbers.

Sequence of FGFR1 (P11362 22-376 limits assumed): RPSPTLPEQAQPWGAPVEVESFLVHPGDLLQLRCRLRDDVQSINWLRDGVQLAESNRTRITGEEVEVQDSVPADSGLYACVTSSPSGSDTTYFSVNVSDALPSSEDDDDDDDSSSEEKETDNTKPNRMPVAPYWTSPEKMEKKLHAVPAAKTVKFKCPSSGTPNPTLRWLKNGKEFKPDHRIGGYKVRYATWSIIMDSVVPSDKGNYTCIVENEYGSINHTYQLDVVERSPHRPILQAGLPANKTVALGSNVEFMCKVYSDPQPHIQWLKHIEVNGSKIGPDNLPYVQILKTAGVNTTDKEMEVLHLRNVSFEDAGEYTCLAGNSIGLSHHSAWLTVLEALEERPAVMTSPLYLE

As for `CS(=O)(=O)CCNCc1ccc(-c2ccc3ncnc(Nc4ccc(OCc5cccc(F)c5)c(Cl)c4)c3c2)o1.Cc1ccc(S(=O)(=O)O)cc1.Cc1ccc(S(=O)(=O)O)cc1.O` [lapatinib, N-(3 chloro-4-{[(3-fluorophenyl)methyl]oxy}phenyl)-6-[5-({[2(methylsulfonyl)ethyl]amino}methyl)-2-furanyl]-4-quinazolinamine bis (4 methylbenzenesulfonate) monohydrate], the “extent of inhibition of pERK signal” value in the assay on phospho-ERK [1] (knockdown by siRNA to OPCML, P=0.0009) was determined as 47%. Also, in the assay on phospho-ERK [1] (non-silencing (non-si) duplex, densitometry, mean of 3 experiments), the “reduction of EGF-induced pERK signal” value is given as 70%. In addition, the “increase in sensitivity: reduction of effective concentration required to abolish the phospho-ERK signal” value in the assay on phospho-ERK [2] (BKS2.1 compared with SKOBS-V1.2, EGF 50 ng/ml, monohydrate) was > 10 fold and 10 fold. Further, the OPCML mediated sensitization entry in the assay with phospho-ERK [2] (setting [6]) is “strong OPCML mediated sensitization”. The Response to lapatinib result in assay [3] was “SD (2×) and PD (2×) and PR (4×)”.

Consider “GST-OPCML D1+2: truncated OPCML ECD lacking Ig domain 3 fused to GST”, for which the entries for the “interaction with FGFR1” value with FGFR1 and with FGFR1 (listed as GST-OPCML 1+2) were “interacted with FGFR1” and “shown to bind”, respectively.

Turning to `C#Cc1cccc(Nc2ncnc3cc(OCCOC)c(OCCOC)cc23)c1` [erlotinib], in the assay with phospho-ERK [2], the OPCML mediated sensitization entry was “no sensitization”.

As to “EGF: human recombinant epidermal growth factor (Promega)”, the “time of maximal OPCML mRNA expression” value in the assay with OPCML [4] was 30 min. Moreover, the “ovarian cancer cell lines with rapid OPCML RNA and protein expression, of lines treated” value in the assay with OPCML [5] is recorded as 4/4.

As to `COc1cc2ncnc(Nc3ccc(F)c(Cl)c3)c2cc1OCCCN1CCOCC1` [gefitinib], the OPCML mediated sensitization result in the assay with phospho-ERK [2] (setting [6]) is listed as “no sensitization”.

Regarding “GST-OPCML D1+2+3: full length OPCML extracellular domain (Ig domains 1-3) fused to GST”, the “interaction with HER2” value is “interacted” in the assay with HER2, “binding of HER2” in the assay with HER2 (listed as GST-OPCML 1+2+3), “specific binding” with HER2 (listed as GST-OPCML 1-3) and “interacting specifically” in the assay with HER2 (listed as GST-OPCML D1-3). For the same compound, the “interaction with FGFR1” value in the assay on FGFR1 is reported as “interacted with FGFR1”; in the assay on FGFR1 (listed as GST-OPCML 1+2+3) it was “shown to bind”; in the assay with FGFR1 (listed as GST-OPCML 1-3) it was “specific binding”; in the assay with FGFR1 (listed as GST-OPCML D1-3), “interacting specifically”. Also, in the assay with EGFR, the “binding of EGFR” value is listed as “no binding of EGFR”.

As for “GST-OPCML D2+3: GST/OPCML domain fusion protein with domains 2 and 3”, the “interaction with FGFR1” value in the assay on FGFR1 is reported as “interacted with FGFR1”.
